Data set [1] in a line: refractive index (Na D-line) (dimensionless). As to conditions: 298.2 K; 101.33 kPa; Liquid; Standard Abbe refractometry.
For data set [2] the following is noted: 298.2 K; 101.33 kPa; Liquid; Vibrating tube method.
Data set [3] can be described thus: refractive index (Na D-line) (dimensionless); wn = mass fraction of the nth substance listed. As to conditions: 298.2 K; 100 kPa; Liquid; Standard Abbe refractometry; w1 = 0.85.
A short description of data set [4]: wn = mass fraction of the nth substance listed. The note with it: 298.2 K; 100 kPa; Liquid; Vibrating tube method; w1 = 0.85.

Molecules are shown by their SMILES. Numbers after ± are expanded uncertainties.

On to `CC(C)CC(C)O` (configuration not stated) [4-methyl-2-pentanol], for which the refractive index in data set [1] came to 1.4101 ± 0.003. Moreover, in data set [2], the mass density turned out to be 803.77 ± 2.1 kg/m3.

Consider `CCCC(C)O` (configuration not stated) [pentan-2-ol], for which, in data set [1], the refractive index is given as 1.4049 ± 0.003. Moreover, in data set [2], the mass density was 805.3 ± 2.1 kg/m3.

For `O=P(O)(O)O` [phosphoric acid] + O, the refractive index in data set [3] was determined as 1.432 ± 0.003. Further, the mass density in data set [4] is recorded as 1682.7 ± 2.2 kg/m3.

Take `O` [water]: the refractive index in data set [1] was determined as 1.3325 ± 0.003.

(Values after the NIST ThermoML archive (doi:10.1016/j.jct.2019.04.005).)
